Values joined by “and” are separate entries in the source; they are usually repeats but may differ in a detail not shown here. Equal entries are not always repeated.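 Results reflect a 48-hour exposure of cells in 96-well plates to compound at five concentrations. GI50 is the concentration that inhibits growth by half. TGI: total growth inhibition.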 Bounds are passed on as bounds.

The record followed here is PubChem BioAssay (NCI).

Some test systems named below: CCRF-CEM leukemia; DU-145 prostate; HCC-2998 colon; HT29 colon; IGROV1 ovarian; NCI-H23 lung; PC-3 prostate; UO-31 renal; MOLT-4 leukemia; SNB-75 CNS.
What all share (test): NCI tumour cell line growth inhibition, 48 h

Regarding `Cc1cc2c(C(C)C)c(O)c(O)c(C=Nc3cc(C(F)(F)F)ccc3Cl)c2c(O)c1-c1c(C)cc2c(C(C)C)c(O)c(O)c(C=Nc3cc(C(F)(F)F)ccc3Cl)c2c1O`, the TGI in the assay with CCRF-CEM leukemia is above 100 µM; in the assay on DU-145 prostate, above 100 µM; in the assay with HCC-2998 colon, above 100 µM; in the assay with HT29 colon it was 79.3 µM; in the assay on IGROV1 ovarian, 75 µM; with NCI-H23 lung, above 100 µM. Also, the TGI in the assay with PC-3 prostate and in the assay with UO-31 renal was above 100 µM each time.
Take `Cc1cc(N(CCNc2ccnc3cc(Cl)ccc23)Cc2ccc3c(c2)OCO3)nc(N2CCN(C)CC2)n1`: the GI50 with CCRF-CEM leukemia is 2.98 µM; in the assay on HCC-2998 colon, 2.12 µM; in the assay on HT29 colon, 1.84 µM; in the assay on IGROV1 ovarian, 3.09 µM; in the assay with MOLT-4 leukemia, 2.09 µM; in the assay with NCI-H23 lung, 6.39 µM. Further, the GI50 with PC-3 prostate is 4.59 µM; with SNB-75 CNS, 1.44 µM; with UO-31 renal it was 1.43 µM. The TGI in the assay on CCRF-CEM leukemia stood at 9.31 µM; in the assay on HCC-2998 colon, 4.88 µM; in the assay with HT29 colon it was 5.96 µM; in the assay on IGROV1 ovarian it was 12.7 µM; in the assay on MOLT-4 leukemia, 8.36 µM; with NCI-H23 lung it was 22.3 µM. The TGI in the assay on PC-3 prostate amounted to 17.7 µM; in the assay on SNB-75 CNS, 3.04 µM; with UO-31 renal, 2.85 µM.
Turning to `COC(=O)C1=C(OC(=O)c2ccc(Cl)cc2)C(C(=O)OC)[C@@]2(O)[C@@H](C(=O)OC)C(c3ccccc3C(F)(F)F)C[C@@H]1[C@@H]2C(=O)OC` (stereo partly specified), the GI50 in the assay with CCRF-CEM leukemia is 3.54 µM; with DU-145 prostate, 6.1 µM; in the assay on HCC-2998 colon, 5.54 µM; in the assay with HT29 colon, 3.54 µM; in the assay on MOLT-4 leukemia it was 2.7 µM; in the assay with NCI-H23 lung it was 3.47 µM. The figures for the GI50 with PC-3 prostate and with UO-31 renal were 4.5 µM and 12.6 µM, respectively. The TGI in the assay with CCRF-CEM leukemia is 31.2 µM; in the assay on DU-145 prostate it was above 100 µM; in the assay on HCC-2998 colon, above 100 µM; with HT29 colon, above 100 µM; in the assay with MOLT-4 leukemia, 7.86 µM; in the assay on NCI-H23 lung it was 16.8 µM. The values for the TGI in the assay with PC-3 prostate and in the assay on UO-31 renal were above 100 µM and 31.6 µM, respectively.
Take `COc1ccc(-c2cc(-c3ccc(Cl)cc3)c(C#N)c(=O)n2CCCCC(=O)Nc2ccccc2N)cc1`: the GI50 was 4.87 µM with CCRF-CEM leukemia; 16.3 µM in the assay with DU-145 prostate; 6.2 µM with HCC-2998 colon; 3.44 µM in the assay with HT29 colon; 4.9 µM with IGROV1 ovarian; 4.89 µM in the assay with MOLT-4 leukemia. For the same compound, the GI50 in the assay with NCI-H23 lung was 12.7 µM; in the assay with PC-3 prostate, 6.18 µM; with UO-31 renal it was 4.71 µM. Moreover, the TGI with CCRF-CEM leukemia was above 100 µM; in the assay on DU-145 prostate, above 100 µM; with HCC-2998 colon, 79.9 µM; in the assay with HT29 colon it was above 100 µM; with IGROV1 ovarian, above 100 µM; in the assay with MOLT-4 leukemia, above 100 µM. Also, the TGI was 55.3 µM with NCI-H23 lung, 95.9 µM in the assay with PC-3 prostate and above 100 µM with UO-31 renal.
Take `Clc1ccccc1NN(Cc1ccccn1)c1ccccc1Cl`: the TGI in the assay on DU-145 prostate is above 100 µM; in the assay with HT29 colon, 29.4 µM; in the assay on IGROV1 ovarian it was 42.2 µM; in the assay with MOLT-4 leukemia, 41.9 µM; with NCI-H23 lung it was 50.4 µM; in the assay with PC-3 prostate, above 100 µM. Besides, the TGI in the assay on SNB-75 CNS turned out to be 41.7 µM; in the assay on UO-31 renal, 34.8 µM.
On to `C#C[C@]1(O)CC[C@H]2[C@@H]3CC=C4c5nc(Nc6ccccn6)sc5CC[C@]4(C)[C@H]3CC[C@@]21C`, for which the GI50 with CCRF-CEM leukemia is 0.482 µM; with DU-145 prostate, 2.16 µM; in the assay with HCC-2998 colon, 1.95 µM; in the assay on HT29 colon it was 1.6 µM; in the assay on IGROV1 ovarian it was 2.27 µM; in the assay on MOLT-4 leukemia it was 0.344 µM. For the same compound, the results for the GI50 in the assay with NCI-H23 lung, in the assay on PC-3 prostate and in the assay on UO-31 renal were 1.67 µM, 0.489 µM and 1.21 µM, respectively. For the same compound, the TGI in the assay with CCRF-CEM leukemia was determined as 4.18 µM; in the assay with DU-145 prostate it was 9.16 µM; in the assay on HCC-2998 colon it was 5.13 µM; in the assay on HT29 colon, 3.94 µM; with IGROV1 ovarian, 10.9 µM; in the assay with MOLT-4 leukemia, 1.7 µM. The values for the TGI in the assay on NCI-H23 lung, in the assay on PC-3 prostate and in the assay on UO-31 renal were 6.64 µM, 3.99 µM and 2.64 µM, respectively.
On to `CSc1ccc(/C=C2\CNC/C(=C\c3ccc(SC)cc3)C2=O)cc1`, for which the GI50 is 29.1 µg/mL with CCRF-CEM leukemia; > 371 µM and 150 µg/mL in the assay with HCC-2998 colon; 150 µg/mL in the assay on HT29 colon; 26.3 µg/mL in the assay on IGROV1 ovarian; 150 µg/mL in the assay on MOLT-4 leukemia; 21.2 µg/mL in the assay with NCI-H23 lung. Moreover, the GI50 was 23.2 µM and 7.91 µg/mL with SNB-75 CNS; 150 µg/mL in the assay on UO-31 renal. Also, the TGI was > 371 µM and 78.8 µg/mL with CCRF-CEM leukemia; above 371 µM in the assay with DU-145 prostate; > 371 µM and 150 µg/mL in the assay with HCC-2998 colon; > 117 µM and 150 µg/mL in the assay on HT29 colon; > 162 µM and 110 µg/mL in the assay with IGROV1 ovarian; > 371 µM and 150 µg/mL in the assay with MOLT-4 leukemia. Moreover, the TGI in the assay with NCI-H23 lung is > 130 µM and 83.6 µg/mL; with SNB-75 CNS it was 86.4 µM and 47.5 µM and 27.9 µg/mL; in the assay with UO-31 renal it was > 371 µM and 150 µg/mL.
Regarding `COc1ccc([C@H]2CC(=O)N3CCCC3N2)cc1` (stereo partly specified), the TGI in the assay on CCRF-CEM leukemia, in the assay with HCC-2998 colon, with HT29 colon, in the assay on IGROV1 ovarian, in the assay on MOLT-4 leukemia and with NCI-H23 lung was above 100 µM each time. Moreover, the TGI in the assay on SNB-75 CNS and in the assay on UO-31 renal was above 100 µM throughout.
Turning to `CC[C@H](C)[C@H](NC(=O)c1cnccn1)C(=O)N(C)[C@H](C[C@@H](OC(C)=O)c1nc(C(=O)N[C@@H](Cc2ccccc2)C[C@H](C)C(=O)OC)cs1)C(C)C`, the GI50 in the assay with CCRF-CEM leukemia was 1.15 µM; with DU-145 prostate, 1.23 µM; in the assay on HCC-2998 colon, 1.35 µM; with HT29 colon, 1.06 µM; in the assay with IGROV1 ovarian, 1.04 µM; in the assay with MOLT-4 leukemia it was 2.23 µM. Besides, the GI50 in the assay on NCI-H23 lung was 1.69 µM; with PC-3 prostate it was 1.36 µM; in the assay on UO-31 renal it was 2.23 µM. Also, the TGI in the assay with CCRF-CEM leukemia was above 33.3 µM; in the assay on DU-145 prostate, above 33.3 µM; in the assay with HCC-2998 colon, above 33.3 µM; with HT29 colon it was 6.75 µM; in the assay on IGROV1 ovarian, above 33.3 µM; in the assay on MOLT-4 leukemia, above 33.3 µM. In addition, the TGI in the assay with NCI-H23 lung, in the assay on PC-3 prostate and with UO-31 renal was above 33.3 µM each time.
`CN1C2CC(C#N)C1C=CC2=O` (stereo unspecified): the TGI was 29.9 µM and > 100 µM with CCRF-CEM leukemia; 61.1 µM and > 100 µM with DU-145 prostate; 51.8 µM and > 100 µM in the assay with HCC-2998 colon; 59.5 µM and > 100 µM in the assay with HT29 colon; above 100 µM with IGROV1 ovarian; 68.7 µM and > 100 µM in the assay with MOLT-4 leukemia. For the same compound, the TGI is 48.6 µM and > 100 µM in the assay with NCI-H23 lung; 92.1 µM and > 100 µM with PC-3 prostate; 24.1 µM and > 100 µM in the assay with UO-31 renal. The GI50 in the assay on DU-145 prostate is 22.8 µM and 58.9 µM; in the assay on HCC-2998 colon, 19.5 µM and > 100 µM; in the assay with HT29 colon, 17.5 µM and 83.8 µM; in the assay with IGROV1 ovarian, 42.8 µM and > 100 µM; in the assay with MOLT-4 leukemia, 15.7 µM and > 100 µM; in the assay with NCI-H23 lung, 16.2 µM and 60.1 µM. The GI50 is 26.3 µM and > 100 µM in the assay on PC-3 prostate; 11.4 µM and > 100 µM in the assay with UO-31 renal.
Regarding `COc1cc2cc(Oc3ccc(NC(=O)c4cccc(C(F)(F)F)c4)cc3)c(C)nc2cc1OC`, the GI50 in the assay with DU-145 prostate is 8.48 µM; with HCC-2998 colon it was 8.03 µM; with HT29 colon it was 6.65 µM; in the assay on IGROV1 ovarian it was 6.78 µM; in the assay with MOLT-4 leukemia, 4.72 µM; with NCI-H23 lung, 4.11 µM. Also, the values for the GI50 in the assay with PC-3 prostate and in the assay on UO-31 renal were 2.85 µM and 4.59 µM, respectively. The TGI in the assay on DU-145 prostate, with HCC-2998 colon, in the assay with HT29 colon, with IGROV1 ovarian, with MOLT-4 leukemia and in the assay with NCI-H23 lung was above 100 µM throughout. Also, the TGI with PC-3 prostate and in the assay with UO-31 renal was above 100 µM each time.
Take `O=C1c2ccccc2N2OC3(N4CCCC4)CCCC3C12c1ccccc1` (stereo unspecified): the TGI in the assay on CCRF-CEM leukemia, with HCC-2998 colon, with HT29 colon, in the assay with IGROV1 ovarian, in the assay on MOLT-4 leukemia and with NCI-H23 lung was above 100 µM in each case. For the same compound, the TGI with SNB-75 CNS and in the assay with UO-31 renal was above 100 µM in each case.
`CC(C)(C)OC(=O)NCC(C#N)CNC(=O)OC(C)(C)C`: the TGI in the assay with CCRF-CEM leukemia, in the assay on DU-145 prostate, with HCC-2998 colon, in the assay with IGROV1 ovarian, in the assay with MOLT-4 leukemia and in the assay with NCI-H23 lung was above 100 µM throughout. For the same compound, the TGI in the assay on PC-3 prostate and in the assay on UO-31 renal was above 100 µM throughout.
Take `CC(=O)c1cccc(N(/C=C/C(=O)C(F)(F)F)CC(=O)c2ccc(Cl)cc2)c1`: the GI50 in the assay on CCRF-CEM leukemia, in the assay on DU-145 prostate, in the assay with HCC-2998 colon, with HT29 colon, with IGROV1 ovarian and in the assay on MOLT-4 leukemia was above 100 µM throughout. Moreover, the GI50 with NCI-H23 lung, with PC-3 prostate and in the assay on UO-31 renal was above 100 µM throughout. Further, the TGI with CCRF-CEM leukemia, with DU-145 prostate, in the assay with HCC-2998 colon, in the assay with HT29 colon, in the assay with IGROV1 ovarian and with MOLT-4 leukemia was above 100 µM in each case. The TGI with NCI-H23 lung, with PC-3 prostate and in the assay on UO-31 renal was above 100 µM in each case.
